This is an account of results in publication PMC9158266, “Ethacrynic acid is an inhibitor of human factor XIIIa” (BMC Pharmacology & Toxicology, 2022).

The experiment has as its target T1, human factor XIIIa (FXIIIa) (Homo sapiens, UniProt P00488).
T1 construct: gene F13A1
T1 sequence (P00488 39-732): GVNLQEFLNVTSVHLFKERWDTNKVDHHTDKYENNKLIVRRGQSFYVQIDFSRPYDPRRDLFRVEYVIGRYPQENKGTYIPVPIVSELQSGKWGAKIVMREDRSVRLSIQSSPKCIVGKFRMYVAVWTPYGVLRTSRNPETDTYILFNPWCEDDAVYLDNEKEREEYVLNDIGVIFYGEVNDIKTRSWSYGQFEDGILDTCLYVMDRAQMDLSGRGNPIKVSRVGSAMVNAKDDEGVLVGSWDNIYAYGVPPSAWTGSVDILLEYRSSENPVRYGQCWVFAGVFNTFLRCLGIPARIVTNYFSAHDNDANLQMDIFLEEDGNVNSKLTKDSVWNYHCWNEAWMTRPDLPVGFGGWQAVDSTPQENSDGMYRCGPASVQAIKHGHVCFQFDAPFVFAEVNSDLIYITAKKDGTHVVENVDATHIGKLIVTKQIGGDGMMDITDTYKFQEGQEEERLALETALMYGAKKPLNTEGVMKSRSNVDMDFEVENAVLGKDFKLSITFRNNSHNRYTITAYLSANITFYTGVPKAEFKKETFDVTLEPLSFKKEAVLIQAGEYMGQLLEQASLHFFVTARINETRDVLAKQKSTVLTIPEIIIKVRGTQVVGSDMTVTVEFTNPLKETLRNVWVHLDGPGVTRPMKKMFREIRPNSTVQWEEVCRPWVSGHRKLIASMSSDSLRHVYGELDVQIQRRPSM
Description: bisubstrate fluorescence trans-glutamination assay (dansylcadaverine / N,N-dimethylcasein). The format is biochemical.

What is called IC50 is the point on the concentration scale where inhibition reaches its midpoint. High values mean lower potency, low ones higher potency. `C=C(CC)C(=O)c1ccc(OCC(=O)O)c(Cl)c1Cl` [compound 1, Ethacrynic acid] returned an IC50 of 106 ± 32.5 µM.
